In ChEMBL document CHEMBL1134151, “Solution-phase, parallel synthesis and pharmacological evaluation of acylguanidine derivatives as potential sodium channel blockers” (Bioorg Med Chem Lett, 2001):

Experiments:
[1] = target: Sodium channel protein type 5 subunit alpha (Homo sapiens, UniProt Q14524); assay: Inhibition of sodium channel blockade in CHO cells expressing human cardiac (hHI) sodium channel; assay type: cell-based
[2] = target: Sodium channel protein type 2 subunit alpha (Homo sapiens, UniProt Q99250); assay: Inhibition of sodium channel blockade in CHO cells expressing neuronal mammalian type IIA (CNaIIA) sodium channel; assay type: cell-based
Mus musculus = assay: In vivo anticonvulsant activity tested as percent inhibition of audiogenic antiseizure in DBA/2 mice at a dose of 20 mg/kg, ip; assay type: functional; settings: route intraperitoneal
[3] = Partition coefficient (logD); assay type: physicochemical; settings: octanol/water
[4] = pKa value determined; assay type: physicochemical

Sequence of Sodium channel protein type 2 subunit alpha (Q99250 whole entry): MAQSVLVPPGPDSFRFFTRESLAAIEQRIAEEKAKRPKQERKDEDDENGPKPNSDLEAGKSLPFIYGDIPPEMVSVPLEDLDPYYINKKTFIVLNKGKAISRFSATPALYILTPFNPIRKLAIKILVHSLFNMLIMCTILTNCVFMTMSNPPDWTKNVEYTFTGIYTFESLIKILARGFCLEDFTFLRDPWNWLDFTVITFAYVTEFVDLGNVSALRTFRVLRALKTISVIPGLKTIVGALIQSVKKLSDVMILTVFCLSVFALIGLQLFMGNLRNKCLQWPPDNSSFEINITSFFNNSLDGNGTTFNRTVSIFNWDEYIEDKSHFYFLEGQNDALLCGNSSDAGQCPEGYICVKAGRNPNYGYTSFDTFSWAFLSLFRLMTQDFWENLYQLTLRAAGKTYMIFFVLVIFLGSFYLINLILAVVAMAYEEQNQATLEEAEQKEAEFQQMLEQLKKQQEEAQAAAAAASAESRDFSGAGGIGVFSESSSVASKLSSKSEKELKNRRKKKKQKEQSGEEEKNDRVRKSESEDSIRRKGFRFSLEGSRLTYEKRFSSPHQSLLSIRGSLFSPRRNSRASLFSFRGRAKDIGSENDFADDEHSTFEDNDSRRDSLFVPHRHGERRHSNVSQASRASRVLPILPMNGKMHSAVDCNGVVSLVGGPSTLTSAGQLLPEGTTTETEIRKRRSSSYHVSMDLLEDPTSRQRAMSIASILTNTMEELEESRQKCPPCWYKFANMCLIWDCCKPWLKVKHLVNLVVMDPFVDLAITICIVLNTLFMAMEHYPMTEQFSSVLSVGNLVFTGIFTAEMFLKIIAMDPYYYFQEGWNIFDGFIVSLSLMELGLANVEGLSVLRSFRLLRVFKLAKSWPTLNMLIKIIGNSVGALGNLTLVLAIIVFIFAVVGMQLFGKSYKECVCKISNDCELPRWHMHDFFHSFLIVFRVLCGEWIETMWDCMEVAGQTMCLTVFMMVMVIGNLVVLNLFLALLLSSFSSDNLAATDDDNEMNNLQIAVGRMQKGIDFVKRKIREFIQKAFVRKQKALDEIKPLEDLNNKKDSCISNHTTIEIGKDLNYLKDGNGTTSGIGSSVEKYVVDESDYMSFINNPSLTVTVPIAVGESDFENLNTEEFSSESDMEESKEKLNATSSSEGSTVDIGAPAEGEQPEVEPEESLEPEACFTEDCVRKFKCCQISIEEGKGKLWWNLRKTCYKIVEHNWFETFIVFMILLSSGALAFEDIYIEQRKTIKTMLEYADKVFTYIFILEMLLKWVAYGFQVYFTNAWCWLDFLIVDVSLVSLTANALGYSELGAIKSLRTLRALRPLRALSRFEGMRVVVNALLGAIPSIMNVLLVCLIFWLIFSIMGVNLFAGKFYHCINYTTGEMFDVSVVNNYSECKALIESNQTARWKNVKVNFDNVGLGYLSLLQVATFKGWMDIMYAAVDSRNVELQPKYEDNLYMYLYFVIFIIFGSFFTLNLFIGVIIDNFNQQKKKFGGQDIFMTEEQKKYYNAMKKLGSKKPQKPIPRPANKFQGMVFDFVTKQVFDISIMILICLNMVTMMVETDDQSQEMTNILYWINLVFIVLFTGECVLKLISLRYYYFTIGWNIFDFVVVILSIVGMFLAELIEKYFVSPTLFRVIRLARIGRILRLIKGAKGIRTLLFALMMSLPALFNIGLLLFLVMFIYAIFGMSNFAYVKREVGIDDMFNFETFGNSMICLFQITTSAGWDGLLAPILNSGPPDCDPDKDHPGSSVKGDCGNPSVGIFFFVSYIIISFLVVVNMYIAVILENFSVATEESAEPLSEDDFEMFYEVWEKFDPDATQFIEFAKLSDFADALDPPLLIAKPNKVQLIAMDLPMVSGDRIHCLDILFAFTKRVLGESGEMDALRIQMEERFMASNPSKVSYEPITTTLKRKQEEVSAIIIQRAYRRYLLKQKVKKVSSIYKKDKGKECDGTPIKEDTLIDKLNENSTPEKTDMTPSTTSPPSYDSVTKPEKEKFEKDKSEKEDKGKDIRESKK
Sequence of Sodium channel protein type 5 subunit alpha (Q14524 whole entry): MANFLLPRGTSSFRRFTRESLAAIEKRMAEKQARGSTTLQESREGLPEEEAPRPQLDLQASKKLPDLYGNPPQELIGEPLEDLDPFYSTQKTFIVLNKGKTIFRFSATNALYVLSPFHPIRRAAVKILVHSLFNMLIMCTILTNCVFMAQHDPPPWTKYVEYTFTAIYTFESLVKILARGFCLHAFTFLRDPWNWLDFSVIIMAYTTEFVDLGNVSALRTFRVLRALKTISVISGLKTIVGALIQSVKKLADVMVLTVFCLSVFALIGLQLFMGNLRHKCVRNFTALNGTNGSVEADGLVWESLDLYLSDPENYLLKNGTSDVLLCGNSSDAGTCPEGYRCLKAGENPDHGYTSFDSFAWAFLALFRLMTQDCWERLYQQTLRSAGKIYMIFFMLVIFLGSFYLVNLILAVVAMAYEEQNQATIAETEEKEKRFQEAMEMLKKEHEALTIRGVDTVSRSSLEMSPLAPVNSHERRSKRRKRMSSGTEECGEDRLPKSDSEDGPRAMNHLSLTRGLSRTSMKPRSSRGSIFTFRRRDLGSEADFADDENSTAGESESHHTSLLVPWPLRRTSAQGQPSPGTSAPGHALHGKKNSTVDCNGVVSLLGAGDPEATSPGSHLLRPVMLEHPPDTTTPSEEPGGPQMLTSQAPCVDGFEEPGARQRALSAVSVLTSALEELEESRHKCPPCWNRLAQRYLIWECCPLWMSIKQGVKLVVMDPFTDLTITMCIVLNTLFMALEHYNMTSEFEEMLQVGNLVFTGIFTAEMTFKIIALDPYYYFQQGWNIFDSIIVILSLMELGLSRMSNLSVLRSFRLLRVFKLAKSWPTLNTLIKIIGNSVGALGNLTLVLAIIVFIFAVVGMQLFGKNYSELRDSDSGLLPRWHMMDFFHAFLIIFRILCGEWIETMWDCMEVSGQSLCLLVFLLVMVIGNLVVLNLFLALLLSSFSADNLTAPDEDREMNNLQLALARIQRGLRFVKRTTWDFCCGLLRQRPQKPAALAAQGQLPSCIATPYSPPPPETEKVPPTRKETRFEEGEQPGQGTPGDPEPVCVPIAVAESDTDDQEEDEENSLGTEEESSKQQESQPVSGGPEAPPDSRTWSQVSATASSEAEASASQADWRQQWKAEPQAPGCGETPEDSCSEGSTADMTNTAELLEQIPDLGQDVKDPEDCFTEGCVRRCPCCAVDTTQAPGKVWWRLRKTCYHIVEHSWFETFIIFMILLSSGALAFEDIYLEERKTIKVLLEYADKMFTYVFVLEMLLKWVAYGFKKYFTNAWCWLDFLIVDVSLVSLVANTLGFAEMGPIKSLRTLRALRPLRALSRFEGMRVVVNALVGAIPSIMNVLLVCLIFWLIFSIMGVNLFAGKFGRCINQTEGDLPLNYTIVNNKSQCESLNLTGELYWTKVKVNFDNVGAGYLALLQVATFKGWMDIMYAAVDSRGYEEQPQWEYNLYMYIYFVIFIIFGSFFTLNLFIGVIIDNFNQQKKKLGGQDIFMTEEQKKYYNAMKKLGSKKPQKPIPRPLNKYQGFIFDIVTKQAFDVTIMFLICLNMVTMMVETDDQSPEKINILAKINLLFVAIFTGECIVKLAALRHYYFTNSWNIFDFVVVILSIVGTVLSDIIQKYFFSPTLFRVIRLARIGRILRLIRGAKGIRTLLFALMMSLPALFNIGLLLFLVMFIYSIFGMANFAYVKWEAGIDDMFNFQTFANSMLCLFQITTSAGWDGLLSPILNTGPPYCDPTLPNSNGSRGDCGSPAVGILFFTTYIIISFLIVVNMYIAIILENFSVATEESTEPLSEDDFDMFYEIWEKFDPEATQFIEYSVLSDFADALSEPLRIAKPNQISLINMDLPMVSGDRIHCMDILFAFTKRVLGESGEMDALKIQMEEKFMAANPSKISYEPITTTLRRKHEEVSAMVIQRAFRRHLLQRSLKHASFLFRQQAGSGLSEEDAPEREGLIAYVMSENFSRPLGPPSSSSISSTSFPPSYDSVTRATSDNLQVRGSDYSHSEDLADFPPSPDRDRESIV

Row | IC50 [2] [µM] | logD [3] | pKa [4] | SMILES | IC50 [1] [µM] | inhibition in vivo at 20 mg/kg (Mus musculus) [%]
1 | 1.92 |  |  | COc1cc(NC(=N)NC(=O)c2ccc(C)cc2)cc(OC)c1OC | 24.4 | 
2 | 4.36 |  |  | Cc1ccc(C(=O)N/C(N)=N\c2ccccc2C(C)C)cc1 | 4.5 | 
3 | 6.03 |  |  | Cc1ccc(C(=O)NC(=N)NCCCc2ccccc2)cc1 | 5.25 | 
4 | 3.29 |  |  | Cc1ccc(C(=O)NC(=N)Nc2cccc3ccccc23)cc1 |  | 
5 | 2.02 |  |  | Cc1ccc(C(=O)NC(=N)Nc2ccc(OC(C)C)cc2)cc1 | 5.75 | 
6 | 3.23 |  |  | Cc1ccc(C(=O)NC(N)=NCCOc2ccccc2)cc1 | 14.2 | 
7 | 1.2 |  |  | Cc1ccccc1C(=O)NC(N)=NCCCCc1ccccc1 | 1.75 | 53
8 | 10.1 |  |  | Cc1ccc(C(=O)NC(=N)Nc2ccc(OCc3ccccc3)cc2)cc1 |  | 
9 | 2.11 |  |  | Cc1ccc(C(=O)NC(=N)NCCCCCc2ccccc2)cc1 | 3.6 | 7
10 | 2.66 |  |  | Cc1ccc(C(=O)NC(N)=NCCc2ccccc2)cc1 | 5.65 | 
11 | 1.95 | 4.4 | 6.35 | Cc1ccc(C(=O)NC(=N)Nc2ccc(C(C)C)cc2)cc1 | 19.7 | 30
12 | 7.11 |  |  | NC(=NCCCCc1ccccc1)NC(=O)c1ccc(Cl)c(Cl)c1 | 15.5 | 
13 | 4.95 |  |  | Cc1ccc(C(=O)NC(=N)NCCc2cccs2)cc1 | 10.5 | 
14 | 0.63 |  |  | CCCCOc1ccc(C(=O)NC(N)=NCCCCc2ccccc2)cc1 | 0.56 | 97
15 | 4.31 |  |  | N=C(NCCCCc1ccccc1)NC(=O)c1cccs1 | 2.35 | 
16 | 9.45 |  |  | Cc1ccc(C(=O)NC(=N)N(C)c2cccc(I)c2)cc1 |  | 
17 | 2.38 |  |  | Cc1ccc(C(=O)NC(N)=NCc2cccc3ccccc23)cc1 | 8.85 | 
18 | 0.76 |  |  | CCOc1ccc(C(=O)NC(N)=NCCCCc2ccccc2)cc1 | 1.1 | 60
19 | 1.14 |  | 7.09 | Cc1ccc(C(=O)NC(=N)NCCCCc2ccccc2)cc1 | 2.85 | 75
20 | 2.67 |  |  | Cc1ccc(C(=O)NC(N)=NCCCOc2ccccc2)cc1 | 5.6 | 54

Row | IC50 [2] [µM] | logD [3] | pKa [4] | SMILES | IC50 [1] [µM] | inhibition in vivo at 20 mg/kg (Mus musculus) [%]
21 | 1.48 |  |  | NC(=NCCCCc1ccccc1)NC(=O)c1cccc(Cl)c1Cl | 2.71 | 
22 | 13.8 |  |  | NC(=NCCCCc1ccccc1)NC(=O)c1ccco1 | 7.9 | 5
23 | 1.39 |  |  | COc1cc(C(=O)NC(N)=NCCCCc2ccccc2)cc(OC)c1OC | 1.51 | 
24 | 5.03 |  |  | NC(=NCCCCc1ccccc1)NC(=O)c1c(Cl)cccc1Cl | 5.4 | 
25 | 3.87 |  |  | Cc1ccc(C(=O)NC(N)=NCc2ccccc2)cc1 |  | 
26 | 0.86 |  |  | NC(=NCCCCc1ccccc1)NC(=O)c1cccc2ccccc12 | 4.1 | 9
27 |  |  | 6.98 | N=C(N)NC(=O)c1ccccc1 |  | 
28 | 5.44 |  |  | Cc1ccc(C(=O)NC(=N)N(C)Sc2cccc(C)c2)cc1 |  | 
29 | 3.9 |  |  | Cc1ccc(C(=O)NC(N)=NCCSCc2ccccc2)cc1 | 10.8 | 
30 | 1.97 |  |  | Cc1ccc(C(=O)NC(N)=NCCc2ccc(Cl)cc2)cc1 | 8.5 | 
31 | 0.82 |  |  | COc1ccc(C(=O)NC(=N)NCCCCc2ccccc2)cc1 | 2.1 | 42
32 | 4.16 |  |  | CN=C(NCCCCc1ccccc1)NC(=O)c1ccc(C)cc1 | 9 | 
33 | 4.3 |  |  | NC(=NCCCCc1ccccc1)NC(=O)c1ccc(Cl)cc1 | 3.6 | 
34 | 8.81 |  |  | Cc1ccc(C(=O)NC(=N)N2CCc3ccccc32)cc1 | > 100 | 16
35 | 1.76 |  |  | COc1ccc2[nH]cc(CCN=C(N)NC(=O)c3ccc(C)cc3)c2c1 | 1.76 | 
36 | 3.25 |  |  | NC(=NCCCCc1ccccc1)NC(=O)c1cc(Cl)ccc1Cl | 7.89 | 
37 | 17.4 |  |  | CCCC/N=C(/N)NC(=O)c1ccc(C)cc1 | 9 | 
38 |  |  | 12.6 | N=C(N)N [GUANIDINE] |  | 
39 |  |  | 10.8 | N=C(N)Nc1ccccc1 [PHENYLGUANIDINE] |  | 

Row | SMILES | IC50 [2] [µM] | logD [3] | pKa [4] | IC50 [1] [µM] | inhibition in vivo at 20 mg/kg (Mus musculus) [%]
40 | Cc1ccc(C(=O)NC(N)=Nc2cc(Br)ccc2Br)cc1 | > 25 |  |  |  | 
41 | Cc1ccc(C(=O)NC(=N)N2CCCc3ccc(C(F)(F)F)cc32)cc1 | > 25 |  |  |  | 
42 | Cc1ccc(C(=O)NC(=N)Nc2ccc(C(C)(C)C)cc2)cc1 | > 24 |  |  |  | 
43 | Cc1ccc(C(=O)NC(N)=NCCCN(C)C)cc1 | > 25 |  |  |  | 
44 | COc1cccc2[nH]cc(CCN=C(N)NC(=O)c3ccc(C)cc3)c12 | 3.35 |  |  | 3.92 | 
